Results on eight compounds are retold here after patent EP0908457B1, “3-(1,2-benzisothiazol- and isoxazol-5-Y1)-2,4(1H,3H)-pyrimidinedione or thione and 3-(1,2-benzisothiazol- and isoxazol-5-y1)-4(3H)-pyrimidinone or thione herbicidal agents” (BASF AKTIENGESELLSCHAFT, priority 1997, dated 1999).

Common to all, as to assay type: in vivo
In one assay the test system is Sagittaria pygmaea, L. The assay can be described thus: Preemergence weed control under flooded paddy conditions, SAGPY (Arrowhead (Pygmaea)). The following applies: flooded paddy; for SAGPY: preemergence weeds, herbicidal effect rating 0-9, three to four weeks after treatment; for SAGPY herbicidal rating: preemergence, rated three to four weeks after treatment.
In assay [1] the test system is Cyperus serotinus, Rottb. The assay can be described thus: Preemergence weed control under flooded paddy conditions, CYPSE (Flatsedge). Particulars: for CYPSE: preemergence weeds, herbicidal effect rating 0-9, three to four weeks after treatment; for CYPSE herbicidal rating: preemergence, rated three to four weeks after treatment.
The test system of the next assay is Cyperus iria. The assay can be described thus: Preemergence weed control under flooded paddy conditions, CYPIR (Rice Flatsedge). Particulars: flooded paddy; for CYPIR: preemergence weeds, herbicidal effect rating 0-9, three to four weeks after treatment; for CYPIR herbicidal rating: preemergence, rated three to four weeks after treatment.
The subject of assay [2] is Monochoria vaginalis, Presl. The experiment in a line: Preemergence weed control under flooded paddy conditions, MOOVA (Monochoria). The following applies: flooded paddy; for MOOVA: preemergence weeds, herbicidal effect rating 0-9, three to four weeks after treatment; for MOOVA herbicidal rating: preemergence, rated three to four weeks after treatment.
Assay [3] relates to Echinochloa oryzoides (Ard.) Fritsch. The assay can be described thus: Preemergence weed control under flooded paddy conditions, ECHORC (Watergrass (Calif.)). Particulars: flooded paddy; for ECHORC: preemergence weeds, herbicidal effect rating 0-9, three to four weeks after treatment; for ECHORC herbicidal rating: preemergence, rated three to four weeks after treatment.

In the case of `Cn1c(C(F)(F)F)cc(=O)n(-c2ccc3snc(C(=O)c4ccccc4)c3c2)c1=O` [Example 449, 2,4(1,3H)-Pyrimidinedione, 3-(3-benzoyl-1,2-benzisothiazol-5-yl)-1-methyl-6-(trifluoromethyl)-], the SAGPY in the assay on Sagittaria pygmaea, L. (0.0320 kg/ha) is reported as 2.0; with Sagittaria pygmaea, L. (0.0620 kg/ha), 4.0; in the assay on Sagittaria pygmaea, L. (0.1250 kg/ha), 4.0; in the assay on Sagittaria pygmaea, L. (0.2500 kg/ha), 6.0. Moreover, the figures for the CYPSE in assay [1] (0.0320 kg/ha) and in assay [1] (0.2500 kg/ha) were 2.0 and 4.0, respectively. The CYPIR was 4.0 in the assay on Cyperus iria (0.0320 kg/ha), 5.0 in the assay with Cyperus iria (0.0620 kg/ha), 8.0 in the assay on Cyperus iria (0.1250 kg/ha) and 9.0 in the assay on Cyperus iria (0.2500 kg/ha). Besides, the MOOVA in assay [2] (0.0320 kg/ha) worked out at 7.0; in assay [2] (0.0620 kg/ha), 7.0; in assay [2] (0.1250 kg/ha), 9.0; in assay [2] (0.2500 kg/ha), 9.0. Also, the ECHORC in assay [3] (0.0320 kg/ha) is recorded as 5.0; in assay [3] (0.0620 kg/ha), 7.0; in assay [3] (0.1250 kg/ha), 9.0; in assay [3] (0.2500 kg/ha), 9.0.

Take `COc1ccc(CC(=O)OCc2nsc3ccc(-n4c(=O)cc(C(F)(F)F)n(C)c4=O)cc23)cc1` [Example 450, 2,4(1H,3H)-Pyrimidinedione, 3-[3-(hydroxymethyl)-1,2-benzisothiazol-5-yl]-1-methyl-6-(trifluoromethyl)-, (p-methoxyphenyl)acetate (ester)]: the SAGPY with Sagittaria pygmaea, L. (0.0320 kg/ha) is on record as 5.0; in the assay with Sagittaria pygmaea, L. (0.0620 kg/ha), 5.0; in the assay with Sagittaria pygmaea, L. (0.1250 kg/ha), 6.0; with Sagittaria pygmaea, L. (0.2500 kg/ha) it was 9.0. The compound also had a CYPSE in assay [1] (0.0320 kg/ha) of 0.0. The CYPIR in the assay with Cyperus iria (0.0320 kg/ha) turned out to be 6.0; in the assay on Cyperus iria (0.0620 kg/ha), 7.0; with Cyperus iria (0.1250 kg/ha) it was 9.0; with Cyperus iria (0.2500 kg/ha) it was 9.0. For the same compound, the MOOVA is reported as 7.0 in assay [2] (0.0320 kg/ha), 7.0 in assay [2] (0.0620 kg/ha), 9.0 in assay [2] (0.1250 kg/ha) and 9.0 in assay [2] (0.2500 kg/ha). For the same compound, the ECHORC is given as 0.0 in assay [3] (0.0320 kg/ha), 2.0 in assay [3] (0.0620 kg/ha), 6.0 in assay [3] (0.1250 kg/ha) and 9.0 in assay [3] (0.2500 kg/ha).

For the compound `Cn1c(C(F)(F)F)cc(=O)n(-c2ccc3snc(COC(=O)Cc4cccs4)c3c2)c1=O` [Example 451, 2,4(1H,3H)-Pyrimidinedione, 3-[3-(hydroxymethyl)-1,2-benzisothiazol-5-yl]-1-methyl-6-(trifluoromethyl)-, 2-thienylacetate (ester)], the SAGPY was found to be 4.0 in the assay on Sagittaria pygmaea, L. (0.0320 kg/ha); 5.0 in the assay with Sagittaria pygmaea, L. (0.0620 kg/ha); 6.0 in the assay on Sagittaria pygmaea, L. (0.1250 kg/ha); 9.0 with Sagittaria pygmaea, L. (0.2500 kg/ha). The CYPSE in assay [1] (0.0620 kg/ha) and in assay [1] (0.2500 kg/ha) was 0.0 in each case. Moreover, the CYPIR in the assay with Cyperus iria (0.0320 kg/ha) stood at 5.0; in the assay on Cyperus iria (0.0620 kg/ha), 5.0; in the assay with Cyperus iria (0.1250 kg/ha) it was 7.0; in the assay on Cyperus iria (0.2500 kg/ha), 9.0. In addition, the MOOVA in assay [2] (0.0320 kg/ha), in assay [2] (0.0620 kg/ha), in assay [2] (0.1250 kg/ha) and in assay [2] (0.2500 kg/ha) was 9.0 in each case. Also, the ECHORC in assay [3] (0.0320 kg/ha) was determined as 0.0; in assay [3] (0.0620 kg/ha), 0.0; in assay [3] (0.1250 kg/ha), 6.0; in assay [3] (0.2500 kg/ha), 7.0.

Consider `Cn1c(C(F)(F)F)cc(=O)n(-c2ccc3snc(COC(=O)Cc4ccc(Cl)cc4)c3c2)c1=O` [Example 452, 2,4(1H,3H)-Pyrimidinedione, 3-[3-(hydroxymethyl)-1,2-benzisothiazol-5-yl]-1-methyl-6-(trifluoromethyl)-, (p-chlorophenyl)acetate (ester)], for which the SAGPY with Sagittaria pygmaea, L. (0.0320 kg/ha) was 0.0; in the assay on Sagittaria pygmaea, L. (0.0620 kg/ha) it was 0.0; in the assay with Sagittaria pygmaea, L. (0.1250 kg/ha), 0.0; with Sagittaria pygmaea, L. (0.2500 kg/ha), 2.0. In addition, the CYPSE worked out at 0.0 in assay [1] (0.0320 kg/ha) and 7.0 in assay [1] (0.2500 kg/ha). Further, the CYPIR in the assay with Cyperus iria (0.0320 kg/ha) amounted to 4.0; in the assay on Cyperus iria (0.0620 kg/ha), 6.0; with Cyperus iria (0.1250 kg/ha) it was 9.0; with Cyperus iria (0.2500 kg/ha), 9.0. Further, the MOOVA in assay [2] (0.0320 kg/ha), in assay [2] (0.0620 kg/ha), in assay [2] (0.1250 kg/ha) and in assay [2] (0.2500 kg/ha) was 9.0 each time. For the same compound, the ECHORC in assay [3] (0.0320 kg/ha) is on record as 0.0; in assay [3] (0.0620 kg/ha), 3.0; in assay [3] (0.1250 kg/ha), 3.0; in assay [3] (0.2500 kg/ha), 7.0.

Consider `COc1cccc(CC(=O)OCc2nsc3ccc(-n4c(=O)cc(C(F)(F)F)n(C)c4=O)cc23)c1` [Example 454, 2,4(1H,3H)-Pyrimidinedione, 3-[3-(hydroxymethyl)-1,2-benzisothiazol-5-yl]-1-methyl-6-(trifluoromethyl)-, (m-methoxyphenyl)acetate (ester)], for which the SAGPY came out at 0.0 with Sagittaria pygmaea, L. (0.0320 kg/ha); 2.0 in the assay on Sagittaria pygmaea, L. (0.0620 kg/ha); 3.0 in the assay with Sagittaria pygmaea, L. (0.1250 kg/ha); 6.0 in the assay with Sagittaria pygmaea, L. (0.2500 kg/ha). The CYPSE in assay [1] (0.0320 kg/ha) is 0.0; in assay [1] (0.0620 kg/ha) it was 0.0; in assay [1] (0.1250 kg/ha), 4.0; in assay [1] (0.2500 kg/ha), 8.0. For the same compound, the CYPIR with Cyperus iria (0.0320 kg/ha) is recorded as 0.0; in the assay on Cyperus iria (0.0620 kg/ha), 1.0; in the assay with Cyperus iria (0.1250 kg/ha), 6.0; in the assay on Cyperus iria (0.2500 kg/ha) it was 9.0. For the same compound, the MOOVA in assay [2] (0.0320 kg/ha) is 2.0; in assay [2] (0.0620 kg/ha), 7.0; in assay [2] (0.1250 kg/ha), 9.0; in assay [2] (0.2500 kg/ha) it was 9.0. Further, the ECHORC in assay [3] (0.0320 kg/ha) is given as 3.0; in assay [3] (0.0620 kg/ha) it was 3.0; in assay [3] (0.1250 kg/ha), 6.0; in assay [3] (0.2500 kg/ha), 7.0.

Take `Cn1c(C(F)(F)F)cc(=O)n(-c2ccc3snc(C(C#N)=CC4CC4)c3c2)c1=O` [Example 458, 1,2-Benzisothiazole-3-acetonitrile, alpha(cyclopropylmethylene)-5-[3,6-dihydro-3-methyl-2,6-dioxo-4-(trifluoromethyl)-1(2H)-pyrimidinyl]-, (E)- and (Z)-]: the SAGPY stood at 2.0 in the assay with Sagittaria pygmaea, L. (0.0320 kg/ha); 2.0 in the assay with Sagittaria pygmaea, L. (0.0620 kg/ha); 6.0 with Sagittaria pygmaea, L. (0.1250 kg/ha); 8.0 in the assay with Sagittaria pygmaea, L. (0.2500 kg/ha). Further, in assay [1] (0.0320 kg/ha), the CYPSE worked out at 2.0. Also, the CYPIR came to 0.0 in the assay with Cyperus iria (0.0320 kg/ha), 4.0 in the assay with Cyperus iria (0.0620 kg/ha), 7.0 in the assay on Cyperus iria (0.1250 kg/ha) and 7.0 in the assay with Cyperus iria (0.2500 kg/ha). The MOOVA in assay [2] (0.0320 kg/ha) stood at 4.0; in assay [2] (0.0620 kg/ha) it was 6.0; in assay [2] (0.1250 kg/ha), 9.0; in assay [2] (0.2500 kg/ha), 9.0. The ECHORC in assay [3] (0.0320 kg/ha) is given as 5.0; in assay [3] (0.0620 kg/ha), 6.0; in assay [3] (0.1250 kg/ha) it was 7.0; in assay [3] (0.2500 kg/ha), 8.0.

Consider `Cn1c(C(F)(F)F)cc(=O)n(-c2ccc3snc(COC(=O)c4ccncc4)c3c2)c1=O` [Example 463, 2,4(1H,3H)-Pyrimidinedione, 3-[3-(hydroxymethyl)-1,2-benzisothiazol-5-yl]-1-methyl-6-(trifluoromethyl)-, isonicotinate (ester)], for which the SAGPY herbicidal rating is 0.0 in the assay with Sagittaria pygmaea, L. (0.0320 kg/ha); 3.0 in the assay with Sagittaria pygmaea, L. (0.0620 kg/ha); 5.0 in the assay with Sagittaria pygmaea, L. (0.1250 kg/ha); 7.0 in the assay with Sagittaria pygmaea, L. (0.2500 kg/ha). Moreover, the results for the CYPSE herbicidal rating in assay [1] (0.0320 kg/ha), in assay [1] (0.1250 kg/ha) and in assay [1] (0.2500 kg/ha) were 2.0, 6.0 and 7.0, respectively. The CYPIR herbicidal rating came out at 5.0 in the assay with Cyperus iria (0.0320 kg/ha), 6.0 in the assay on Cyperus iria (0.0620 kg/ha), 9.0 with Cyperus iria (0.1250 kg/ha) and 9.0 in the assay on Cyperus iria (0.2500 kg/ha). Also, the MOOVA herbicidal rating is 7.0 in assay [2] (0.0320 kg/ha), 9.0 in assay [2] (0.0620 kg/ha), 9.0 in assay [2] (0.1250 kg/ha) and 9.0 in assay [2] (0.2500 kg/ha). For the same compound, the ECHORC herbicidal rating in assay [3] (0.0320 kg/ha) is listed as 2.0; in assay [3] (0.0620 kg/ha), 6.0; in assay [3] (0.1250 kg/ha), 9.0; in assay [3] (0.2500 kg/ha), 9.0.

`COC(CCOc1ccc(C)cc1-c1nsc2ccc(-n3c(=O)cc(C(F)(F)F)n(C)c3=O)cc12)OC` [Example 467, Propionaldehyde, 3-{{2-[5-{3,6-dihydro-3-methyl-2,6-dioxo-4-(trifluoromethyl)-1(2H)-pyrimidinyl]-1,2-benzisothiazol-3-yl}-p-tolyl}oxy}-, 1-(dimethylacetal)]: the SAGPY herbicidal rating amounted to 0.0 in the assay on Sagittaria pygmaea, L. (0.0320 kg/ha); 0.0 with Sagittaria pygmaea, L. (0.0620 kg/ha); 3.0 in the assay on Sagittaria pygmaea, L. (0.1250 kg/ha); 7.0 in the assay with Sagittaria pygmaea, L. (0.2500 kg/ha). Also, the CYPSE herbicidal rating was 6.0 in assay [1] (0.0320 kg/ha), 7.0 in assay [1] (0.0620 kg/ha), 9.0 in assay [1] (0.1250 kg/ha) and 9.0 in assay [1] (0.2500 kg/ha). Moreover, the CYPIR herbicidal rating with Cyperus iria (0.0320 kg/ha) worked out at 2.0; in the assay with Cyperus iria (0.0620 kg/ha), 5.0; in the assay with Cyperus iria (0.1250 kg/ha), 6.0; in the assay with Cyperus iria (0.2500 kg/ha), 9.0. For the same compound, the MOOVA herbicidal rating in assay [2] (0.0320 kg/ha) was 7.0; in assay [2] (0.0620 kg/ha) it was 9.0; in assay [2] (0.1250 kg/ha), 9.0; in assay [2] (0.2500 kg/ha), 9.0. Besides, the ECHORC herbicidal rating is on record as 6.0 in assay [3] (0.0320 kg/ha), 7.0 in assay [3] (0.0620 kg/ha), 9.0 in assay [3] (0.1250 kg/ha) and 9.0 in assay [3] (0.2500 kg/ha).
